Measured values as given in ChEMBL document CHEMBL1125158, “A model for compounds active against human rhinovirus-14 based on X-ray crystallography data” (1990).
Values after ≈ are worked out from the molar mass of the structure shown. Active and inactive are the calls of the source. No cut-off for these calls is given here.

test system: rhinovirus B14; experiment: In vitro inhibitory activity against human rhinovirus-14 was determined; assay type: functional; settings: Rhinovirus B

| Structure (SMILES) | MIC [µM] |
| --- | --- |
| Cc1cc(CCCCCOc2ccc(C3=NCCO3)cc2)on1 | 1.27 (≈ 0.399 µg/mL) |

test system: rhinovirus B14; experiment: In vitro minimum inhibitory concentration for the inhibition of human rhinovirus-14 replication.; assay type: functional; settings: not given

| Structure (SMILES) | MIC |
| --- | --- |
| Cc1cc(CCCCOc2ccc(C3=NCCO3)cc2)on1 | inactive |

same assay, conditions: Rhinovirus B

| Structure (SMILES) | MIC [µM] |
| --- | --- |
| OCCOCOCc1cc(CCCCCCCOc2c(Cl)cc(C3=NCCO3)cc2Cl)on1 | 0.06 (≈ 0.0301 µg/mL) |
| Cc1cc(CCCCCOc2ccc(C3=NCCO3)cc2)on1 | 0.51 (≈ 0.16 µg/mL) |
| Cc1cc(CCCCCOc2ccc(C3=NC(C)CO3)cc2)on1 (centres undefined) | 0.7 (≈ 0.23 µg/mL) |
| Cc1cc(CCCCCCOc2ccc(C3=NCCO3)cc2Cl)on1 | 3.86 (≈ 1.4 µg/mL) |
| Cc1cc(CCCCCCCOc2ccc(C3=NCCO3)cc2Cl)on1 | 1.06 (≈ 0.399 µg/mL) |
| Cc1cc(CCCCCCCCOc2ccc(C3=NCCO3)cc2)on1 | 3.92 (≈ 1.4 µg/mL) |
| Cc1cc(CCCCCCCOc2ccc(C3=NCCO3)cc2)on1 [DISOXARIL] | 0.41 (≈ 0.14 µg/mL) |
| Cc1cc(CCCCCCOc2ccc(C3=NCCO3)cc2)on1 | 2.9 (≈ 0.952 µg/mL) |
| CCc1cc(CCCCCOc2ccc(C3=NCCO3)cc2)on1 | 0.43 (≈ 0.141 µg/mL) |
| Cc1cc(CCCCCOc2ccc(-c3nc(C)c(C)s3)cc2)on1 | 0.14 (≈ 0.0499 µg/mL) |
| Cc1cc(CCCCOc2ccc(C3=NCCO3)cc2Cl)on1 | 9.2 (≈ 3.08 µg/mL) |
| Cc1cc(CCCCCCCOc2ccc(C3=NC(C)CO3)cc2)on1 (centres undefined) | 0.05 (≈ 0.0178 µg/mL) |
| Cc1cc(CCCCCOc2ccc(C3=NCCO3)cc2Cl)on1 | 2.41 (≈ 0.841 µg/mL) |
| Cc1cc(CCCCCCCOc2ccc(C3=NC(C)(C)CO3)cc2)on1 | 0.16 (≈ 0.0593 µg/mL) |
| CCCCc1cc(CCCCCOc2ccc(C3=NCCO3)cc2)on1 | 0.56 (≈ 0.2 µg/mL) |
| Cc1cc(CCCCCCCOc2ccc(C3=NC(C)CO3)cc2Cl)on1 (centres undefined) | 2.4 (≈ 0.938 µg/mL) |
| CCCc1cc(CCCCCOc2ccc(C3=NCCO3)cc2)on1 | 0.16 (≈ 0.0548 µg/mL) |
| CC[C@H]1COC(c2ccc(OCCCCCCCc3cc(C)no3)cc2)=N1 | 0.023 (≈ 0.00852 µg/mL) |
| Cc1cc(CCCCCCCOc2ccc(C3=NC(CO)CO3)cc2)on1 (centres undefined) | 0.16 (≈ 0.0596 µg/mL) |
| Cc1cc(CCCCCCCCOc2ccc(C3=NCCO3)cc2Cl)on1 | 14.3 (≈ 5.6 µg/mL) |

test system: rhinovirus B14; experiment: In vitro minimum inhibitory concentration for the inhibition of human rhinovirus-14 (HRV-14) replication by binding to viral capsid; NA= inactive at the 10 umol.; assay type: functional, organism-based; settings: not given

| Structure (SMILES) | MIC |
| --- | --- |
| Cc1cc(CCCCCOc2c(C)cc(-c3ccco3)cc2C)on1 | inactive |
| Cc1cc(CCCCCOc2c(Cl)cc(-c3cnco3)cc2Cl)on1 | inactive |
| Cc1cc(CCCCCOc2c(Cl)cc(C3=NCCO3)cc2C(C)(C)C)on1 | inactive |
| Cc1cc(CCCCCOc2ccc(C3=NCCO3)cc2N(C)C)on1 | inactive |
| Cc1cc(CCCCCOc2c(C)cc(-c3ccoc3)cc2C)on1 | inactive |
| Cc1cc(CCCCCOc2c(Cl)cc(-c3ccoc3)cc2Cl)on1 | inactive |
| CCc1cc(C2=NCCO2)cc(C)c1OCCCCCc1cc(C)no1 | inactive |
